{"source": "paper PMC6690489", "about": "(Bioorganic & medicinal chemistry letters, 2018)", "key": {"human M4": {"biological_target": "T1, human M4 (Homo sapiens, UniProt P08173)", "T1 sequence (P08173 1-479)": "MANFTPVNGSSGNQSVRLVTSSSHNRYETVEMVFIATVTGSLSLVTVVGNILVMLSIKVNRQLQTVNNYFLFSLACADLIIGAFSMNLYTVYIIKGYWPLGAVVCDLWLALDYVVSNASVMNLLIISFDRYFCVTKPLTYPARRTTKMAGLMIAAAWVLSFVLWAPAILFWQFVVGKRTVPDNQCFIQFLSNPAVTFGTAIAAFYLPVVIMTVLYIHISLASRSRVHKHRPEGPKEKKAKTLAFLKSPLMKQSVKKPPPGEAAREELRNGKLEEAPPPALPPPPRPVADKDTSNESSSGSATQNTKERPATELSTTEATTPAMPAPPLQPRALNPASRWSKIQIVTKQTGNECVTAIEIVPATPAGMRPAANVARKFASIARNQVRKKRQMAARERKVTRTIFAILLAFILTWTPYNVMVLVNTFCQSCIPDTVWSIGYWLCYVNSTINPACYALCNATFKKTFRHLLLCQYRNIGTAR", "experiment": "calcium mobilization human M4/Gqi5 assay with EC20 acetylcholine", "assay_type": "cell-based"}, "[1]": {"experiment": "predicted hepatic clearance", "assay_type": "in vitro ADME", "conditions": "rat"}, "CYP450": {"tested_on": "CYP450", "experiment": "CYP450 inhibition profile", "assay_type": "in vitro ADME"}}, "data": [{"compound": "COc1ccc(CNC(=O)c2cc3c(C)c(C)nnc3s2)cc1F", "note": "[18a]", "values": [{"measurement": "loss of potency relative to parent 4", "setting": "human M4; des-amino analog vs NH2-bearing 4", "value": "~ 18 fold"}]}, {"compound": "COc1ccc(CNc2n[nH]c3c2sc2nc(C)cc(C)c23)cc1", "note": "[22a]", "values": [{"measurement": "predicted hepatic clearance CLhep", "setting": "[1]", "value": 66, "unit": "mL/min/kg"}, {"measurement": "IC50", "setting": "CYP450", "value": "< 5000", "unit": "nM"}]}, {"compound": "Cc1nc2sc3c(NCC4CC4)nn(C)c3c2c(C)c1Cl", "note": "[27d]", "values": [{"measurement": "predicted hepatic clearance CLhep", "setting": "[1]", "value": "> 67", "unit": "mL/min/kg"}]}, {"compound": "Cc1nc2sc3c(NCc4ccco4)nn(C)c3c2c(C)c1Cl", "note": "[27e]", "values": [{"measurement": "predicted hepatic clearance CLhep", "setting": "[1]", "value": "> 67", "unit": "mL/min/kg"}]}, {"compound": "COc1ccc(CNc2nn(C)c3c2sc2nnc(C)c(C)c23)cc1", "note": "[30a]", "values": [{"measurement": "EC50", "setting": "human M4", "value": 44, "unit": "nM"}, {"measurement": "predicted hepatic clearance CLhep", "setting": "[1]", "value": 67.8, "unit": "mL/min/kg"}]}, {"compound": "Cc1nnc2sc3c(NCc4ccc(S(C)(=O)=O)c(F)c4)nn(C)c3c2c1C", "note": "[30b]", "values": [{"measurement": "IC50", "setting": "CYP450", "value": "> 30000", "unit": "nM"}]}]}
